Reference: patent US12459941B2, “Tricyclic IRAK inhibitors” (Rigel Pharmaceuticals, Inc., priority 2022, dated 2025)

How the values were obtained:
TNFa [1] = assay: TNFa ELISA, PBMC, Resiquimod (R848) stimulated; assay type: cell-based; conditions: 10 pt curve
IRAK1 = IRAK1 (Homo sapiens, UniProt P51617); assay: IRAK1 ADP-Glo Kinase assay; assay type: biochemical; conditions: 8 pt curve
TNFa [2] = assay: TNFa ELISA, dendritic cells, Gardiquimod stimulated; assay type: cell-based; conditions: Homo sapiens, Dendritic cell, 10 pt curve
IRAK4 = target: T1, IRAK4 (Homo sapiens, UniProt Q9NWZ3); assay: IRAK4 ADP-Glo assay; assay type: biochemical; conditions: 8 pt curve; read-out: IRAK4 ADP-Glo Kinase, 8 pt
T1 construct: purchased Signalchem I12-10G-20
T1 sequence (Q9NWZ3 1-460): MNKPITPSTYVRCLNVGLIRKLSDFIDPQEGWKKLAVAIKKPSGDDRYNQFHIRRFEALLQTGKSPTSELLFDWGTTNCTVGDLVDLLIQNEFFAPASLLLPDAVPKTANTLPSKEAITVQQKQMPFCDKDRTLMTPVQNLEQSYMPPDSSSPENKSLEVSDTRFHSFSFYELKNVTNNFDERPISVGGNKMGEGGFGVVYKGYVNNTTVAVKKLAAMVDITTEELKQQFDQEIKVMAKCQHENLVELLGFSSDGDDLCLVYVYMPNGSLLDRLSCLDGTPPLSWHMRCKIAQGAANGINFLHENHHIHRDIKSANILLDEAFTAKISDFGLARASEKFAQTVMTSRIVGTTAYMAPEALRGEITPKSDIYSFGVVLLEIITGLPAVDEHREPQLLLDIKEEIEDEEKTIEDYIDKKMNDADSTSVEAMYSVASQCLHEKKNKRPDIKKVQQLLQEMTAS
Method: IRAK4 Kinase Enzyme (Signalchem, I12-10G-20); 0.1M DTT (Signalchem, D86-09B); MBP Substrate (Signalchem, M42-51N); ADP Glo (Promega, V9101); 1M MgCl2 (Teknova, M03304); 1M Tris-HCl pH7.4 (Teknova, T1074); BSA (Sigma (A3059); Distilled H2O
Wallac Victor2 1420 Multilabel Counter
The ADP-Glo™ reagents were thawed at ambient temperature. The Kinase Detection Reagent was prepared by mixing kinase detection buffer with the lyophilized kinase detection substrate, and set aside.
A stock volume of 5× Reaction Kinase Buffer was made with a final concentration of 100 mM MgCl2, 200 mM Tris-HCl, and 0.5 mg/ml of BSA, in distilled H2O with a final pH7.4. A 2× working stock volume of Reaction Kinase Buffer was made containing a final concentration of […].
The components of IRAK4 Enzyme were thawed on ice. Diluted IRAK4 in 1× Kinase Reaction Buffer (diluted from 2× buffer) was prepared at […]. A […] working stock ATP Assay Solution was prepared in 1× Kinase Reaction Buffer (diluted from 2× buffer).
The compound was diluted in DMSO from 250 µM in 4-fold series dilutions for 8 points. Then diluted 1:5 in 2× Reaction Buffer in a 96 well plate. 1.01 was transferred to a 384 well plate in duplicate. […] 1 μl of 1 mg/ml stock solution of MBP substrate was added NOTE: MBP can be combined with ATP mix with equal volume and then added at 2 d/well. Final reaction volume was 5 μl.
The plate was centrifuged and the reaction mixture was incubated at room temperature for 60 minutes or at 30° C. for 30 minutes.
The reaction was terminated and the remaining ATP was depleted by adding 5 μl of ADP-Glo™ Reagent. The 384-well plate was centrifuged and then the reaction mixture was incubated for another 40 minutes at ambient temperature.
10 μl of the Kinase Detection Reagent was added. The plate was centrifuged and then the reaction mixture was incubated for another 30 minutes at ambient temperature.
The 384-well reaction plate was read using the WALLAC plate reader (Luminescence 0.1s).

IL23-p19 = assay: LPS induced IL23p19 in THP-1 cells (IFNγ primed), sandwich ELISA; assay type: cell-based; conditions: Homo sapiens; THP-1 cells primed with IFNγ, LPS 1 μg/mL, 10 pt curve; read-out: IL23-p19 ELISA, THP1-IFNy, LPS, 10 pt
Source text: LPS Induced IL23p19 in THP-1 Cells (with IFNγ Primed) Assay
THP-1 Cells (ATCC, Cat #TIB-202), Dimethyl Sulfoxide (DMSO) (Sigma-Aldrich, Cat #D2650), RPMI 1640 (Cellgro, Cat #10-040-CM), Fetal Bovine Serum (Sigma, Cat #F4135), Albumin From Bovine Serum (BSA) (Sigma-Aldrich, Cat #A7906), LPS (Serotype K-235, Sigma, Product Number L 2143), IFNγ (Peprotech, Cat #300-02), Capture antibody: Human IL-23p19 ELISA (e-Bioscience, Cat. #14-7238-85), Detection antibody: Primary Mouse Biotinylated anti-human IL-12(p40/p70) (e-Bioscience, Cat. #13-7129-85), Secondary HRP-conjugated Streptavidin (R&D Systems, Cat #DY998), 1×PBST Washing Buffer (PBS-Tween tablet) (VWR International, Cat #80058-558), ELISA Blocking Buffer (PBS with 1% BSA), ELISA Dilution Buffer (PBS with 1% BSA), 384 Well Flat-Bottom, MaxiSorp Black Immuno Plates (Thermo Scientific, Cat #12-565-346), 384 Well Flat-Bottom, White Tissue Culture Plates (Thermo Scientific, Cat #12-565-343), Super Signal ELISA Pico Chemiluminescent Substrate (Thermo Scientific, Cat #37070), Cell Titer Glo reagent (Promega, Cat #G7573), Positive control, IKK2VI inhibitor (Calbiochem, Cat #401483), AquaMax 4000 plate washer (Molecular Devices), Luminometer, Wallac Victor2 1420 Multilabel Counter.
On day 1, 50K/well THP-1 cells were seeded and primed with IFNγ (50 ng/mL) in 384-well plates for about 18 hours in RPMI media with 10% FBS. On day 2, the compound was serially diluted in DMSO from 5 mM in 3-fold dilutions, and then diluted 1:125 in RPMI media with 10% FBS. 50 μL/well 2× compound was added to 50 μL/well THP-1 cells (with IFNγ primed) in duplicate in 384 well tissue culture plates. The cells were pre-incubated with compound for 1 hour at 37° C., 5% CO2 before addition of 10 μL/well 11×LPS to give a final concentration of 1 μg/mL LPS. Day 3, after stimulation for 18 hours at 37° C., 5% CO2, the assay plate was centrifuged and 70 μL/well supernatant was harvested. IL-23p19 protein in 70 μL/well of supernatant was measured by sandwich ELISA, and 25 μl/well Cell Titer Glo reagent was added to the remaining cells to measure compound toxicity.
Human IL-23p19 Sandwich ELISA:
Maxisorp immuno ELISA plates were pre-coated with 25 μL/well of anti-IL-23p19 capture antibody (2.5 ug/mL) in PBS overnight at room temperature. After washing with 1×PBST, the plates were blocked using 100 μL/well of 1% BSA in PBS for 2 hours at room temperature. The plates were washed three times with 1×PBST and 70 μL/well supernatant were added. The plates were incubated at room temperature for 2 hours with shaking and washed three times with 1×PBST. 25 μL/well of biotin labeled anti-IL-12(p40/p70) detection antibody (100 ng/mL) in PBS with 1% BSA was added and the plates were incubated at room temperature for 2 hours with shaking. After washing three times with 1×PBST, 25 μL/well of streptavidin-HRP (1:200) in PBS with 1% BSA was added and the plates were incubated at room temperature for 20 minutes with shaking. The plates were washed three times with 1×PBST and 25 μL/well of Super Signal ELISA Pico Chemiluminescent Substrate were added. The plates were read with a luminometer, and the chemiluminescence values were entered into Athena (Rigel) for curve fitting, EC50 calculation, and database storage.

Sequence of IRAK1 (P51617 whole entry): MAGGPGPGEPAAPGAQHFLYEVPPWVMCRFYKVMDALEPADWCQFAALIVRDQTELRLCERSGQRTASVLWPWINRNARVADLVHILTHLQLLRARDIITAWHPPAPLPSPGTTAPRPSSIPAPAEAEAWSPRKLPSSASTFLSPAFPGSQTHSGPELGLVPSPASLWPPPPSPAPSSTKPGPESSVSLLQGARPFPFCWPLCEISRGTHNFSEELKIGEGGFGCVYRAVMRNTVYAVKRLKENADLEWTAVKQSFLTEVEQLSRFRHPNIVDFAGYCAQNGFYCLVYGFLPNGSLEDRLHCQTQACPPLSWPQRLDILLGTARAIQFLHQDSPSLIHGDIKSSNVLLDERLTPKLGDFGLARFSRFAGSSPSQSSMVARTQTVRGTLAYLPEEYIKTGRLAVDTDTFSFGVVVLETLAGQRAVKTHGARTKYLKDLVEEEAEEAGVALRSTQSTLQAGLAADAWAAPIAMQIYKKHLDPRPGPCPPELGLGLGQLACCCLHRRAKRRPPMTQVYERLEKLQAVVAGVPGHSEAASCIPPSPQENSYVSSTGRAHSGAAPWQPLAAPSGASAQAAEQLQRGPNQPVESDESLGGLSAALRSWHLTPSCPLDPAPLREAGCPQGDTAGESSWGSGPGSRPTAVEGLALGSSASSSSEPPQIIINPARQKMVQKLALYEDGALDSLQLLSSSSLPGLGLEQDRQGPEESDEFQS

Compound CC[C@@H]1[C@H](F)C(=O)N[C@@H]1COc1nccc2cc3c(=O)[nH]ccc3cc12 [I-46, 6-(((2S,3S,4S)-3-ethyl-4-fluoro-5-oxopyrrolidin-2-yl)methoxy)pyrido[3,4-g]isoquinolin-1(2H)-one] has an EC50 (TNFa [1]) of 0.295 µM, an IC50 (IRAK1) of 1.12 µM and an EC50 (TNFa [2]) of 0.239 µM. For the same compound, the IC50 (IRAK4) was 0.0065 µM.
For CC[C@@H]1[C@H](F)C(=O)N[C@@H]1COc1nccc2cc3c(=O)[nH]cc(C#N)c3cc12 [I-47, 6-(((2S,3S,4S)-3-ethyl-4-fluoro-5-oxopyrrolidin-2-yl)methoxy)-1-oxo-1,2-dihydropyrido[3,4-g]isoquinoline-4-carbonitrile], the EC50 (TNFa [1]) was 0.0788 µM, the IC50 (IRAK1) was 0.531 µM and the EC50 (TNFa [2]) was 0.0782 µM. The IC50 (IRAK4) was 0.035 µM.
Work on O=C1CC[C@@H](COc2nccc3cc4c(=O)[nH]cc(C5CCCC5)c4cc23)N1 [I-13, (S)-4-cyclopentyl-6-((5-oxopyrrolidin-2-yl)methoxy)pyrido[3,4-g]isoquinolin-1(2H)-one] yielded an EC50 (TNFa [1]) of 0.303 µM, an IC50 (IRAK1) of 6.26 µM and an EC50 (IL23-p19) of 8.47 µM. The IC50 (IRAK4) was 0.0559 µM.
In the case of CCCc1c[nH]c(=O)c2cc3ccnc(OC[C@@H]4CCC(=O)N4)c3cc12 [I-10, (S)-6-((5-oxopyrrolidin-2-yl)methoxy)-4-propylpyrido[3,4-g]isoquinolin-1(2H)-one], the EC50 (TNFa [1]) is reported as 0.369 µM, the IC50 (IRAK1) is reported as 11.1 µM and the EC50 (TNFa [2]) is reported as 0.613 µM. For the same compound, the IC50 (IRAK4) was 0.0742 µM.
Work on CC(C)(O)c1c[nH]c(=O)c2cc3ccnc(OC[C@@H]4CCC(=O)N4)c3cc12 [I-20, (S)-4-(2-hydroxypropan-2-yl)-6-((5-oxopyrrolidin-2-yl)methoxy)pyrido[3,4-g]isoquinolin-1(2H)-one] yielded an EC50 (TNFa [1]) of 6.97 µM, an EC50 (IL23-p19) of 38.7 µM and an IC50 (IRAK4) of 0.303 µM.
CC[C@@H]1[C@H](F)C(=O)N[C@@H]1COc1nccc2cc3c(=O)[nH]cc(C)c3cc12 [I-45, 6-(((2S,3S,4S)-3-ethyl-4-fluoro-5-oxopyrrolidin-2-yl)methoxy)-4-methylpyrido[3,4-g]isoquinolin-1(2H)-one] was tested, and the EC50 (TNFa [1]) was 0.0027 µM, the IC50 (IRAK1) was 0.018 µM and the EC50 (TNFa [2]) was 0.0034 µM. It also gave an IC50 (IRAK4) of 0.0055 µM.
CC[C@@H]1[C@H](F)C(=O)N[C@@H]1COc1nccc2cc3c(=O)[nH]cc(I)c3cc12 [I-44, 6-(((2S,3S,4S)-3-ethyl-4-fluoro-5-oxopyrrolidin-2-yl)methoxy)-4-iodopyrido[3,4-g]isoquinolin-1(2H)-one] showed an EC50 (TNFa [1]) of 0.0052 µM, an IC50 (IRAK1) of 0.0277 µM and an EC50 (TNFa [2]) of 0.002 µM. It also gave an IC50 (IRAK4) of 0.0042 µM.
Work on O=C1CC[C@@H](COc2nccc3cc4c(=O)[nH]cc(CC(F)(F)F)c4cc23)N1 [I-19, (S)-6-((5-oxopyrrolidin-2-yl)methoxy)-4-(2,2,2-trifluoroethyl)pyrido[3,4-g]isoquinolin-1(2H)-one] yielded an EC50 (TNFa [1]) of 0.208 µM, an IC50 (IRAK1) of 14.8 µM and an EC50 (TNFa [2]) of 0.177 µM. The IC50 (IRAK4) was 0.105 µM.
Work on C=Cc1c[nH]c(=O)c2cc3ccnc(OC[C@@H]4CCC(=O)N4)c3cc12 [I-7, (S)-6-((5-oxopyrrolidin-2-yl)methoxy)-4-vinylpyrido[3,4-g]isoquinolin-1(2H)-one] yielded an EC50 (TNFa [1]) of 0.193 µM, an IC50 (IRAK1) of 4.28 µM and an EC50 (TNFa [2]) of 0.215 µM. It also gave an IC50 (IRAK4) of 0.0048 µM.
C=CCc1c[nH]c(=O)c2cc3ccnc(OC[C@@H]4CCC(=O)N4)c3cc12 [I-9, (S)-4-allyl-6-((5-oxopyrrolidin-2-yl)methoxy)pyrido[3,4-g]isoquinolin-1(2H)-one] showed an EC50 (TNFa [1]) of 0.376 µM, an IC50 (IRAK1) of 6.86 µM and an EC50 (TNFa [2]) of 0.419 µM. The IC50 (IRAK4) was 0.0145 µM.
In the case of O=C1CC[C@@H](COc2nccc3cc4c(=O)[nH]cc(-c5cn[nH]c5)c4cc23)N1 [I-33, (S)-6-((5-oxopyrrolidin-2-yl)methoxy)-4-(1H-pyrazol-4-yl)pyrido[3,4-g]isoquinolin-1(2H)-one], the IC50 (IRAK1) is reported as 3.01 µM, the EC50 (TNFa [2]) is reported as 25.6 µM and the IC50 (IRAK4) is reported as 0.028 µM.
In the case of CC(O)c1c[nH]c(=O)c2cc3ccnc(OC[C@@H]4CCC(=O)N4)c3cc12 (stereo partly drawn) [I-36, 4-(1-hydroxyethyl)-6-(((S)-5-oxopyrrolidin-2-yl)methoxy)pyrido[3,4-g]isoquinolin-1(2H)-one], the EC50 (TNFa [1]) is reported as 1.03 µM, the IC50 (IRAK1) is reported as 11.3 µM and the EC50 (TNFa [2]) is reported as 63.8 µM. The IC50 (IRAK4) was 0.0627 µM.
O=C1CC[C@@H](COc2nccc3cc4c(=O)[nH]cc(C5CCC5)c4cc23)N1 [I-12, (S)-4-cyclobutyl-6-((5-oxopyrrolidin-2-yl)methoxy)pyrido[3,4-g]isoquinolin-1(2H)-one] gave an EC50 (TNFa [1]) of 0.203 µM, an IC50 (IRAK1) of 7.86 µM and an EC50 (TNFa [2]) of 11.7 µM. For the same compound, the IC50 (IRAK4) was 0.0396 µM.
For C#Cc1c[nH]c(=O)c2cc3ccnc(OC[C@@H]4CCC(=O)N4)c3cc12 [I-18, (S)-4-ethynyl-6-((5-oxopyrrolidin-2-yl)methoxy)pyrido[3,4-g]isoquinolin-1(2H)-one], the EC50 (TNFa [1]) was 0.337 µM, the IC50 (IRAK1) was 12 µM and the EC50 (TNFa [2]) was 0.358 µM. The IC50 (IRAK4) was 0.0144 µM.
CCc1c[nH]c(=O)c2cc3ccnc(OC[C@@H]4CCC(=O)N4)c3cc12 [I-8, (S)-4-ethyl-6-((5-oxopyrrolidin-2-yl)methoxy)pyrido[3,4-g]isoquinolin-1(2H)-one] gave an EC50 (TNFa [1]) of 0.112 µM, an IC50 (IRAK1) of 7.23 µM and an EC50 (TNFa [2]) of 0.148 µM. The IC50 (IRAK4) was 0.0085 µM.
